Source: patent publication US20250090528A1, “USE OF COMPLEMENT FACTOR D INHIBITOR FOR TREATMENT OF LUPUS NEPHRITIS AND IMMUNOGLOBULIN A NEPHROPATHY” (Alexion Pharmaceuticals, Inc., priority 2021, published 2025)
Where two headings read alike, the source gives them in different places.

Assays:
[1] = Single-ascending and multiple-ascending dose clinical PK studies in healthy volunteers; format: in vivo, human
Text: Clinical pharmacokinetics (PK) and PD data have been generated for ALXN2050 in single-ascending and multiple-ascending dose studies in healthy volunteers.

[2] = system: alternative pathway (AP) activity; test: PD activity: AP inhibition in the AP Wieslab assay after multiple-dose administration in healthy participants; format: in vivo, human
Protocol: The 120 mg BID dosing regimen provided sustained AP inhibition (AP activity <10%) in healthy participants whose ALXN2050 concentrations achieved the 90% inhibitory concentration (IC90) threshold through the 12-hour dosing periods. Therefore, 120 mg BID is selected as the minimum therapeutic dose. […] Therefore, the 180 mg BID is selected as the likely therapeutic dose.
(§1) In addition, both dosage regimens provided complete (>90%) and sustained inhibition of AP activity throughout the 12-hour dosing interval. Therefore, 120 mg BID is selected as the minimum therapeutic dosage.

[3] = Multiple ascending dose study: safety and safety margin versus NOAEL exposures from nonclinical chronic toxicology studies; format: in vivo, human; conditions: 120 and 200 mg BID
Protocol: as §1

lupus nephritis = conditions: LN patients, cited from earlier work
[4] = NOAEL from nonclinical chronic toxicology studies

CC(=O)c1nn(CC(=O)N2[C@H](C(=O)Nc3nc(Br)ccc3C)C[C@@]3(C)C[C@@H]23)c2ccc(-c3cnc(C)nc3)cc12 [ALXN2050]
intersubject variability in PK [1]: Large intersubject variability | increase in systemic exposure with dose ([1]; multiple-dose administration at steady state (Days 7 and 14), 40 mg BID to 200 mg BID): greater than dose-proportional increase | increase in systemic exposure with dose ([1]; single-dose administration): dose-proportional increase | inhibition of AP activity (complete and sustained) ([2]; 120 and 200 mg BID, throughout the 12-hour dosing interval): > 90% | activity at 120 mg ([2]; Homo sapiens, 120 mg BID, participants whose concentrations achieved the IC90 threshold through the 12-hour dosing periods, read-out: AP activity (sustained AP inhibition)): < 10% | PD activity (AP inhibition in the AP Wieslab assay) ([2]; multiple-dose 40 mg BID to 200 mg BID, healthy participants): increased with increasing dose | safety and efficacy of dose regimens ([3]; multiple ascending dose study): safe and effective | safety margin in AUC0-24 versus exposures at NOAEL [3, 4]: ≥ 10 fold | safety margin in maximum plasma concentration (Cmax) versus exposures at NOAEL [3, 4]: ≥ 10 fold

C=C/C=C/C[C@@H](C)[C@@H](O)[C@H]1C(=O)N[C@@H](CC)C(=O)N(C)CC(=O)N(C)[C@@H](CC(C)C)C(=O)N[C@@H](C(C)C)C(=O)N(C)[C@@H](CC(C)C)C(=O)N[C@@H](C)C(=O)N[C@H](C)C(=O)N(C)[C@@H](CC(C)C)C(=O)N(C)[C@@H](CC(C)C)C(=O)N(C)[C@@H](C(C)C)C(=O)N1C [voclosporin]
CRR (lupus nephritis; at one year, placebo 22.5%): 40.8%

belimumab: approved in the US for the treatment of LN
CRR (lupus nephritis; at two years, placebo 20.0%): 30.0%
